# Test results from patent publication US11434239B2, “Aza-dihydro-acridone derivatives” (Artax Biopharma Inc., priority 2017, dated 2022).
# Like-named read-outs stand apart in the source and are kept apart here.
# Key:
# [1] = molecular target: T1, CYP1A2 (Homo sapiens, UniProt P05177); experiment: CYP inhibition, microsomes; format: in vitro ADME; settings: metabolite acetaminophen
# T1 construct: premixing appropriate volumes of buffer, microsomes and substrate; from tissue
# T1 sequence (P05177 1-516): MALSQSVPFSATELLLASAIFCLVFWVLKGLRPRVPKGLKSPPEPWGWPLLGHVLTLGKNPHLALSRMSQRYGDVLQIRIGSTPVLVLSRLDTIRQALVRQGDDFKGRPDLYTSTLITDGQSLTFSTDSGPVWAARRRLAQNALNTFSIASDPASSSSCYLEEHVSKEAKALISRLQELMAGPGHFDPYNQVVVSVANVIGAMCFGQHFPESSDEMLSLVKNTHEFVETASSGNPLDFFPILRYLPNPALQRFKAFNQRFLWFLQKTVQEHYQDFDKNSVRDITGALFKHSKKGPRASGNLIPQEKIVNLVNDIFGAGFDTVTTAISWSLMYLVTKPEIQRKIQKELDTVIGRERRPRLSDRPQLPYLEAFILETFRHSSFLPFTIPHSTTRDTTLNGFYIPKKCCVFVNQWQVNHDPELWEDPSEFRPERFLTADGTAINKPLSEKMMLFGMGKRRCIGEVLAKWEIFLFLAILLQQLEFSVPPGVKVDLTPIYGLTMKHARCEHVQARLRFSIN
# Method: (§1) For each isozyme, microsomes-buffer-substrate mixture (MBS mix) is prepared by premixing appropriate volumes of buffer, microsomes and substrate. MBS mixture (179 μL) is transferred to a 96-well reaction plate. An aliquot (1 μL) is spiked from corresponding wells of Test Item stock solution plate to reaction plate. The reaction plate is pre-incubated for 5 minutes at 37° C. Reaction is initiated by the addition of 20 μL of NADPH solution. Each experiment is performed in duplicate. Reaction plate is incubated for predetermined time at 37° C. and quenched using either 200 μL of acetonitrile (for CYP2C9, CYP2D6, CYP2C19 and CYP3A4) or 200 μL of a mixture of 70:30 1% formic acid:acetonitrile (for CYP1A2).
# [2] = molecular target: T2, CYP2C19 (Homo sapiens, UniProt P33261); experiment: CYP inhibition, microsomes; format: in vitro ADME; settings: metabolite 4′-hydroxy mephenytoin, class symbols
# T2 construct: premixing appropriate volumes of buffer, microsomes and substrate; from tissue
# T2 sequence (P33261 whole entry): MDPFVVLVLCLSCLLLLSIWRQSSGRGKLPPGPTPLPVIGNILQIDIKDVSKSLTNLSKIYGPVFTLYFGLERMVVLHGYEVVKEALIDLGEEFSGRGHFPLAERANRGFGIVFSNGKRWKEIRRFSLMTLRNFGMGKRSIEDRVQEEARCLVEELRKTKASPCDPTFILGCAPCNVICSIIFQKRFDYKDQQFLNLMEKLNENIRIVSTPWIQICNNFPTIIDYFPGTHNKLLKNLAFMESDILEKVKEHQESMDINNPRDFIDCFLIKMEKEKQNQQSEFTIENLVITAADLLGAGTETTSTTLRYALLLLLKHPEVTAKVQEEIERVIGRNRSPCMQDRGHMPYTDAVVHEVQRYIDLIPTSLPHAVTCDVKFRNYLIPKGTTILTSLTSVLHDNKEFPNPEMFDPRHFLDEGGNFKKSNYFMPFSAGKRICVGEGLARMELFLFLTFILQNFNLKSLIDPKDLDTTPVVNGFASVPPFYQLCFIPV
# Method: as §1
# [3] = molecular target: T3, CYP2C9 (Homo sapiens, UniProt P11712); experiment: CYP inhibition, microsomes; format: in vitro ADME; settings: metabolite 4-hydroxy diclofenac
# T3 construct: premixing appropriate volumes of buffer, microsomes and substrate; from tissue
# T3 sequence (P11712 whole entry): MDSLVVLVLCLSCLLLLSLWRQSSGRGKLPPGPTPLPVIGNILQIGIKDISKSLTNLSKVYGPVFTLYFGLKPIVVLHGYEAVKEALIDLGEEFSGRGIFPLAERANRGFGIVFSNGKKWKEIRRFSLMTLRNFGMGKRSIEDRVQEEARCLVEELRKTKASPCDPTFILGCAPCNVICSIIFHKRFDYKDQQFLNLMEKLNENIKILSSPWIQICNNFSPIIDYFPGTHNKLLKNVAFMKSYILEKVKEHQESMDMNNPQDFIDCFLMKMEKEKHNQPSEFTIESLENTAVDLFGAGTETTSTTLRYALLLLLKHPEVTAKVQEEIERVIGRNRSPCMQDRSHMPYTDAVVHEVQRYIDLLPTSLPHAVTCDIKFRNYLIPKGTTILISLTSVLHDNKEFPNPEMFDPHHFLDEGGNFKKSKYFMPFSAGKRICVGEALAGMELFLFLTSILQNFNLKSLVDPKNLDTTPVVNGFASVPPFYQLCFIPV
# Method: as §1
# [4] = molecular target: T4, CYP2D6 (Homo sapiens, UniProt P10635); experiment: CYP inhibition, microsomes; format: in vitro ADME; settings: metabolite dextrorphan, class symbols
# T4 construct: premixing appropriate volumes of buffer, microsomes and substrate; from tissue
# T4 sequence (P10635 whole entry): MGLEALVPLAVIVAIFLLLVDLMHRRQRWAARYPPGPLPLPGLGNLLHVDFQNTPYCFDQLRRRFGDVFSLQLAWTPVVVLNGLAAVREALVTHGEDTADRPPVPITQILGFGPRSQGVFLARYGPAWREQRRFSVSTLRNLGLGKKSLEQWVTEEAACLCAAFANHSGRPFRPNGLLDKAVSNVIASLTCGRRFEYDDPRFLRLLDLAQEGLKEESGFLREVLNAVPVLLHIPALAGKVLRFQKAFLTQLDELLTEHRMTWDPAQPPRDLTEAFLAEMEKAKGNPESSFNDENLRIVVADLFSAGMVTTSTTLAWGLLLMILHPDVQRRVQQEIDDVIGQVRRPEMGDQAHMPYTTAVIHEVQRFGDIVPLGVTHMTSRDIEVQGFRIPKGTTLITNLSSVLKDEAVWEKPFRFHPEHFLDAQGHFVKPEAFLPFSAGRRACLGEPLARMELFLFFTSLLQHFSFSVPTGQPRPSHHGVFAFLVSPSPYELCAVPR
# Method: as §1
# [5] = molecular target: T5, CYP3A4 (Homo sapiens, UniProt P08684); experiment: CYP inhibition, microsomes; format: in vitro ADME
# T5 construct: premixing appropriate volumes of buffer, microsomes and substrate; from tissue
# T5 sequence (P08684 whole entry): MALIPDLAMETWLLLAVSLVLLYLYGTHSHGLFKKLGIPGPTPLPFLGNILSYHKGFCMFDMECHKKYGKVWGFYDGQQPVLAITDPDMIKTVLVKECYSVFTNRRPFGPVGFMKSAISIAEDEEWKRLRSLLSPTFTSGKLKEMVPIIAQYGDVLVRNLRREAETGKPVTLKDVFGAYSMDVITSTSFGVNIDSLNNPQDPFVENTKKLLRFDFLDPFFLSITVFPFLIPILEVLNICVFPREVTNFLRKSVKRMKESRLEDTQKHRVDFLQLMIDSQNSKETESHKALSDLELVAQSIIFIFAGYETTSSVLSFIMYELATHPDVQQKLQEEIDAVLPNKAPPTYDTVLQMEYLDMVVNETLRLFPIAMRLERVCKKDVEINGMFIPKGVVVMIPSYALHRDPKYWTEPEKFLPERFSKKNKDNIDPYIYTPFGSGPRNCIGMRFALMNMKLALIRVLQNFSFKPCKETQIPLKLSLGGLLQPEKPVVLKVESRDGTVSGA
# Method: as §1
# [6] = Microsomal stability (intrinsic clearance study); format: in vitro ADME; settings: 0.5 mg/mL protein
# Method: Intrinsic clearance studies are performed individually with mouse, rat and human liver microsomes at 0.5 mg/mL protein concentration. Briefly, for protein concentration 0.5 mg/mL assay, liver microsomal protein (12.5 uL), NAPDH (50 uL) and phosphate buffer (435 uL) are co-incubated (pre-incubation) in a 96-well deep well plate in an orbital incubator (10 min, 37° C.). Reactions are initiated by the addition of 2.5 uL of test item working stock solution (100 uM). Aliquots (50 uL) are withdrawn from the reaction tube at 0, 5, 10, 20 and 30 minutes and the reaction is immediately terminated by transferring to a 96 deep well plate containing 50 uL of acetonitrile. Verapamil is used as a positive control in mouse, rat and human liver microsomes. To the quenched samples internal standard is added and vortex mixed followed by centrifugation at 4000 rpm for 10 minutes and an aliquot of supernatant is taken for LC-MS/MS analysis. Samples are analyzed by a suitable fit-for-purpose multiple reaction monitoring method developed on LC-MS/MS using and API 4000 mass spectrometer to estimate the area ratio (analyte peak area/internal standard peak area).
# [7] = molecular target: T6, hERG (Homo sapiens, UniProt Q12809); experiment: hERG inhibition, IKr current, patch clamp in HEK cells stably transfected with the hERG clone; format: cell-based; settings: for inhibition at 1 µM / inhibition at 3 µM / inhibition at 10 µM / inhibition at 30 µM: human, HEK cells stably transfected with hERG; for inhibition at 1 µM: pH 7.4, 1 μM; for inhibition at 3 µM: pH 7.4, 3 μM; for inhibition at 10 µM: pH 7.4, 10 μM; for inhibition at 30 µM: pH 7.4, 30 μM; for IC50: test concentrations 1, 3, 10 and 30 μM, read-out: hERG IC 50 (IKr current)
# T6 construct: expressed in transfected cells
# T6 sequence (Q12809 whole entry): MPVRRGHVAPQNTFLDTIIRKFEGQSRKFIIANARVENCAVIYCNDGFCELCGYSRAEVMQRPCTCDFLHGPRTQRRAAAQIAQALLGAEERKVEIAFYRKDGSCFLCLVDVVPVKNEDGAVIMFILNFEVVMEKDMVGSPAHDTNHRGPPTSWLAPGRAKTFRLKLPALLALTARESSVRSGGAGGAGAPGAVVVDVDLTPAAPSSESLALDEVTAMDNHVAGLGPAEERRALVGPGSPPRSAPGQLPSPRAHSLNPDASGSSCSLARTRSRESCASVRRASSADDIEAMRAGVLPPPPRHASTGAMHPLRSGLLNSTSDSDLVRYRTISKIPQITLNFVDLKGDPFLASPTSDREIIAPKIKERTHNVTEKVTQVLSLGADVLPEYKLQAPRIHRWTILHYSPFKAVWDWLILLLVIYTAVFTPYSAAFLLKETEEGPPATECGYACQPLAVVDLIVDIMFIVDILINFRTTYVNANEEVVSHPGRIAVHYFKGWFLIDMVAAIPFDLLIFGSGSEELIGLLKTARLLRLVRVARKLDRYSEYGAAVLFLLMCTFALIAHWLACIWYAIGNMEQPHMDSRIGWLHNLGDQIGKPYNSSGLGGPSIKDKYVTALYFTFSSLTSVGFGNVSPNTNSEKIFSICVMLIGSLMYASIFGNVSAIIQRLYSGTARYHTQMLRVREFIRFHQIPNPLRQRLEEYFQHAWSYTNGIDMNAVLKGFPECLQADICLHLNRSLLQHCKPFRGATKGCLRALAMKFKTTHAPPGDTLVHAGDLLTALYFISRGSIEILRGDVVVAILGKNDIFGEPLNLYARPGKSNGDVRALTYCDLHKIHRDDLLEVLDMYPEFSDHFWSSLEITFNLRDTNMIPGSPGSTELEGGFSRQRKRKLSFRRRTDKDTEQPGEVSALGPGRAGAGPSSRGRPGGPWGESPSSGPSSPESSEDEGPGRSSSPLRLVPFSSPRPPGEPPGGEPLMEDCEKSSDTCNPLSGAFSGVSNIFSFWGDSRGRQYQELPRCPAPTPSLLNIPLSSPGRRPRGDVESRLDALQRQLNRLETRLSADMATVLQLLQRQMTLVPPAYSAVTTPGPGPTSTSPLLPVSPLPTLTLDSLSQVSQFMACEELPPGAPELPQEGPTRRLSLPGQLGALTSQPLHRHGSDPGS
# Method: HEK cells stably transfected with the hERG clone are maintained at 37±2° C. in a 5% CO2 incubator. The cells are initially revived and grown in DMEM/F12+GlutaMAX-I medium supplemented with 9% fetal bovine serum (FBS) and antibiotics (Penicillin 100 IU/mL Streptomycin 100 μg/mL) (complete medium). Furthermore, the cells are continuously maintained and passaged in complete media in addition to the appropriate concentration of selection antibiotic (Geneticin (G418) 200 μg/mL) (Selection media). The cells are sub cultured every 2-3 days and medium is changed with complete medium at least a day before the experiment.
# The cells are harvested on the day of experiment, dislodged and suspended in sterile filtered external solution (NaCl 140 mM, KCl 4 mM, MgCl2 1 mM, CaCl2 2 mM, D-Glucose monohydrate 5 mM, Hepes/NaOH 10 mM, pH 7.4, Osmolarity:298+/−5 mOsmol).
# The NPC®-1 chip of the Port-a-Patch® is filled with 5 μL of internal solution (KCl 50 mM, NaCl 10 mM, KFl 60 mM, EGTA 20 mM, Hepes/KOH 10 mM, pH 7.2, Osmolarity: 285+/−5 mOsmol) and it is screwed onto the chip holder. The Faraday cage is then fixed on the chip holder, such that the external electrode is placed near to the chip aperture. 5 μL of external solution is added to the center of the aperture so that the external electrode is also in contact with the solution.
# The experiment is be initiated. […] The suction automatically attracts a cell to the aperture, resulting in an increase in the chip resistance. When the cell is captured and the set threshold for the resistance is reached, the software recognizes this increase in resistance and proceeds to the next step of the sealing procedure. 20 μL of seal enhancer solution (NaCl 80 mM, KCl 4 mM, MgCl2 10 mM, CaCl2 35 mM, Hepes (Na+salt)/HCl pH 7.4, Osmolarity: 298+/−5 mOsmol) is added 2-3 times. When the threshold resistance is reached, Patch Control automatically moves to the step of improving the seal. When the desirable resistance (Rpip) is reached, whole cell mode is attained and maintained.
# Finally, hERG protocol is selected to run the experiment. The seal enhancer solution is replaced with 20 μL external solution after 2-4 rinses and then the test item is added (from lower to higher concentration) and checked for current inhibition. All the experiments are performed at ambient temperature (22-25° C.).
# A schematic diagram of the Pulse protocol: Cells are stimulated every 10 seconds using the following protocol. The holding potential, sweep intervals and the depolarization/repolarization potentials are furnished in the table below.
# Once the stable current is attained (at least 2-5 minutes) vehicle control is added and the current measured till the stable current is achieved. 3-5 consecutive data points from the last stable current phase are considered for further analysis. […] The system performs on-line analysis for several parameters which include functions that acquire data from traces and functions that perform calculations on the results of other functions.
# [8] = column CYP3A4^a (footnote a not given), class symbols, read-out: CYP IC50 CYP3A4^a
# [9] = column CYP3A4^b (footnote b not given), class symbols, read-out: CYP IC50 CYP3A4^b
# [10] = human liver microsomes, read-out: Microsomal stability (T½ min) Human
# [11] = mouse liver microsomes, read-out: Microsomal stability (T½ min) Mouse
# [12] = rat liver microsomes, read-out: Microsomal stability (T½ min) Rat
# [13] = mean of two trials, read-out: Percent Inhibition Mean (%) (IKr current)
# [14] = read-out: Percent Inhibition Trial I (IKr current)
# [15] = read-out: Percent Inhibition Trial II (IKr current)
SMILES,IC50 ([1]; class symbols) [µM],IC50 [2] [µM],IC50 [4] [µM],"IC50 [5, 8] [µM]","half-life at 0.5 uM [6, 10] [min]","half-life at 0.5 uM [6, 11] [min]","half-life at 0.5 uM [6, 12] [min]","inhibition at 1 µM [7, 13] [%]","inhibition at 1 µM [7, 14] [%]","inhibition at 1 µM [7, 15] [%]","inhibition at 3 µM [7, 13] [%]","inhibition at 3 µM [7, 14] [%]","inhibition at 3 µM [7, 15] [%]","inhibition at 10 µM [7, 13] [%]","inhibition at 10 µM [7, 14] [%]","inhibition at 10 µM [7, 15] [%]","inhibition at 30 µM [7, 13] [%]","inhibition at 30 µM [7, 14] [%]","inhibition at 30 µM [7, 15] [%]",IC50 [7] [µM],further results
"Cn1c2c(c(=O)c3ccccc31)CN(Cc1ccccc1)CC2 [Compound I-1, 2-benzyl-5-methyl-1,2,3,4-tetrahydro(5H, 10H)-benzo(b)-1,6-naphthyridin-10-one]",20 to 50,20 to 50,≤ 5,> 50,≤ 30,10 to 30,10 to 30,9.04,9.22,8.85,20.9,20.4,21.4,37.8,39.6,35.9,58.6,58.9,58.3,18.4,"IC50 ([3]; class symbols): > 50 µM; IC50 [5, 9]: > 50 µM"
CN1c2ccccc2C(O)C2CN(Cc3ccccc3)CCC21 (centres unmarked) [Ia-1],5 to 20,≤ 5,≤ 5,≤ 5,10 to 30,< 10,< 10,11.4,12.9,9.88,21.9,21.3,22.5,28.9,29.4,28.3,54.4,54.8,54.1,25.7,"IC50 [5, 9]: 20 to 50 µM"
O=c1c2c([nH]c3cc(F)c(F)cc13)CCN(Cc1ccccc1)C2 [Ib-22],–,5 to 20,≤ 5,–,≤ 30,10 to 30,10 to 30,4.5,5.62,3.37,15.3,16,14.6,21.4,23.8,19,30.1,34,26.2,47.3,"IC50 ([1]; numeric bound): > 12.5 µM; IC50 ([3]; numeric bound): > 12.5 µM; IC50 ([5]; CYP3A4^a, numeric bound, read-out: CYP IC50 CYP3A4^a): > 12.5 µM; IC50 ([5]; numeric bound, read-out: CYP IC50 CYP3A4^b): > 12.5 µM"
